Results as given in patent publication US8258134B2, “Pyridazinone glucokinase activators” (Hoffmann-La Roche Inc., priority 2008, dated 2012).

Molecular target: T1, Recombinant human liver GK1 (GST-GK) (Homo sapiens, UniProt P35557)
T1 construct: made in house; host or cells: E. coli
T1 sequence (P35557 1-466 isoform P35557-2): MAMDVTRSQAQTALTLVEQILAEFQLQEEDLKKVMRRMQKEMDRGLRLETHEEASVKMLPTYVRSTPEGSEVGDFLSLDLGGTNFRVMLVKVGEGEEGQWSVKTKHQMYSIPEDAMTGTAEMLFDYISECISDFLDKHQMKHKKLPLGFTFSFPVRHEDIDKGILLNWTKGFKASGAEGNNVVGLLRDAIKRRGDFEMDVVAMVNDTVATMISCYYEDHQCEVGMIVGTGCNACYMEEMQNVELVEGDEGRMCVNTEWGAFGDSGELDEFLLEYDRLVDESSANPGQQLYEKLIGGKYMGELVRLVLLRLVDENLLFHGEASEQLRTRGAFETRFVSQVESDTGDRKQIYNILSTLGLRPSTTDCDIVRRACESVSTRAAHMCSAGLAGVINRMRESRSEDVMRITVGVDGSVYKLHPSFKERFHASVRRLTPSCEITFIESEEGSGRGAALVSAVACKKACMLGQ
Assay: Glucokinase in vitro assay (G6PDH-coupled NADH generation, OD340)
Format: biochemical
Conditions: 5 mM D-glucose; for SC1.5 average (concentration of activator that produced a 50% increase in the activity of GK): 30° C., pH 7.1, 10% DMSO; for fold activation @ 30 uM: 30 uM test compound
Experimental: Glucokinase In Vitro Assay Protocol: Glucokinase (GK) was assayed by coupling the production of glucose-6-phosphate to the generation of NADH with glucose-6-phosphate dehydrogenase (G6PDH, 0.75-1 k units/mg; Boehringer Mannheim, Indianapolis, Ind.) from Leuconostoc mesenteroides as the coupling enzyme (Scheme 2):
Recombinant human liver GK1 was expressed in E. coli as a glutathione S-transferase fusion protein (GST-GK) [Liang et al, 1995] and was purified by chromatography over a glutathione-Sepharose 4B affinity column using the procedure provided by the manufacturer (Amersham Pharmacia Biotech, Piscataway, N.J.).
The assay was conducted at 30° C. in a flat bottom 96-well tissue culture plate from Costar (Cambridge, Mass.) with a final incubation volume of 120 μL. The incubation reaction contained the following: 25 mM Hepes buffer (pH 7.1), 25 mM KCl, 5 mM D-glucose, 1 mM ATP, 1.8 mM NAD, 2 mM MgCl2, 1 μM sorbitol-6-phosphate, 1 mM dithiothreitol, test drug or 10% DMSO, ˜7 units/ml G6PDH, and GK (see below). All organic reagents were >98% pure and were from Boehringer Mannheim with the exceptions of D-glucose and Hepes which were from Sigma Chemical Co, St Louis, Mo. Test compounds were dissolved in DMSO and were added to the incubation reaction minus GST-GK in a volume of 12 μL to yield a final DMSO concentration of 10%. This mix was pre-incubated in the temperature controlled chamber of a SPECTRAmax 250 microplate spectrophotometer (Molecular Devices Corporation, Sunnyvale, Calif.) for 10 minutes to allow temperature equilibrium and then the reaction was started by the addition of 20 μL GST-GK.
After addition of enzyme, the increase in optical density (OD) at 340 nm was monitored spectrophotometrically to determine the rate of change (OD340 per min). The GK activity (OD340/min) in control wells (10% DMSO minus GK activators) was compared with the activity in wells containing test GK activators, and the concentration of activator that produced a 50% increase in the activity of GK, i.e., the SC1.5, was calculated. The table below provides the in vitro glucokinase activity for the compounds in the Examples: […]

| Structure (SMILES) | SC1.5 average (concentration of activator that produced a 50% increase in the activity of GK) | fold activation @ 30 uM |
| --- | --- | --- |
| CC(C)(O)Cn1ccc(NC(=O)C(CC2CCCC2)n2ncc(Oc3cccnc3)cc2=O)n1 (stereo not shown) [Example 28, 3-Cyclopentyl-N-[1-(2-hydroxy-2-methyl-propyl)-1H-pyrazol-3-yl]-2-[6-oxo-4-(pyridin-3-yloxy)-6H-pyridazin-1-yl]-propionamide] | 1.925 µM | – |
| CC(C)(O)Cn1ccc(NC(=O)C(CC2CCCC2)n2ncc(Oc3ccccc3N3CCOCC3)cc2=O)n1 (stereo not shown) [Example 34, 3-Cyclopentyl-N-[1-(2-hydroxy-2-methyl-propyl)-1H-pyrazol-3-yl]-2-[4-(2-morpholin-4-yl-phenoxy)-6-oxo-6H-pyridazin-1-yl]-propionamide] | 1.72 µM | – |
| Cc1nsc(NC(=O)C(CC2CCCC2)n2ncc(Oc3ccccc3)cc2=O)n1 (stereo not shown) [Example 3, 3-Cyclopentyl-N-(3-methyl-[1,2,4]thiadiazol-5-yl)-2-(6-oxo-4-phenoxy-6H-pyridazin-1-yl)-propionamide] | 2.07 µM | – |
| CC1CCCC(C)C1Oc1cnn(C(CC2CCCC2)C(=O)Nc2ccn(C[C@@H](O)CO)n2)c(=O)c1 (stereo partly drawn) [Example 91, 3-Cyclopentyl-N-[1-((R)-2,3-dihydroxy-propyl)-1H-pyrazol-3-yl]-2-[4-(2,6-dimethyl-cyclohexyloxy)-6-oxo-6H-pyridazin-1-yl]-propionamide] | > 30 µM | 1.28 fold |
| CC(C)(O)Cn1ccc(NC(=O)C(CC2CCOCC2)n2ncc(Oc3c(F)cccc3F)cc2=O)n1 (stereo not shown) [Example 43, 2-[4-(2,6-Difluoro-phenoxy)-6-oxo-6H-pyridazin-1-yl]-N-[1-(2-hydroxy-2-methyl-propyl)-1H-pyrazol-3-yl]-3-(tetrahydro-pyran-4-yl)-propionamide] | 0.232 µM | – |
| CC(C)(O)Cn1ccc(NC(=O)C(CC2CCCC2)n2ncc(Oc3ccc(F)cc3F)cc2=O)n1 (stereo not shown) [Example 32, 3-Cyclopentyl-2-[4-(2,4-difluoro-phenoxy)-6-oxo-6H-pyridazin-1-yl]-N-[1-(2-hydroxy-2-methyl-propyl)-1H-pyrazol-3-yl]-propionamide] | 0.745 µM | – |
| CC(C)CC(C(=O)Nc1ccn(CC(C)(C)O)n1)n1ncc(Oc2c(F)cccc2F)cc1=O (stereo not shown) [Example 42, 2-[4-(2,6-Difluoro-phenoxy)-6-oxo-6H-pyridazin-1-yl]-4-methyl-pentanoic acid [1-(2-hydroxy-2-methyl-propyl)-1H-pyrazol-3-yl]-amide] | 0.349 µM | – |
| Cn1ccc(NC(=O)C(CC2CCCC2)n2nc(Oc3ccccc3)ccc2=O)n1 (stereo not shown) [Example 85, 3-cyclopentyl-N-(1-methyl-1H-pyrazol-3-yl)-2-(6-oxo-3-phenoxy-6H-pyridazin-1-yl)-propionamide] | > 30 µM | 1.3 fold |

The next lines start with the values.

| SC1.5 average (concentration of activator that produced a 50% increase in the activity of GK) | fold activation @ 30 uM | Structure (SMILES) |
| --- | --- | --- |
| 1.277 µM | – | Cc1cccc(Oc2cnn(C(CC3CCCC3)C(=O)Nc3ccn(C[C@@H](O)CO)n3)c(=O)c2)n1 (stereo partly drawn) [Example 99, 3-Cyclopentyl-N-[1-((R)-2,3-dihydroxy-propyl)-1H-pyrazol-3-yl]-2-[4-(6-methyl-pyridin-2-yloxy)-6-oxo-6H-pyridazin-1-yl]-propionamide] |
| 2.611 µM | – | CC(C)(O)Cn1ccc(NC(=O)C(CC2CCCC2)n2ncc(S(=O)(=O)c3ccccc3)cc2=O)n1 (stereo not shown) [Example 125, 2-(4-Benzenesulfonyl-6-oxo-6H-pyridazin-1-yl)-3-cyclopentyl-N-[1-(2-hydroxy-2-methyl-propyl)-1H-pyrazol-3-yl]-propionamide] |
| 2.461 µM | – | CC(C)(O)Cn1ccc(NC(=O)C(CC2CCCC2)n2ncc([S+]([O-])c3ccccc3)cc2=O)n1 (stereo not shown) [Example 124, 2-(4-Benzenesulfinyl-6-oxo-6H-pyridazin-1-yl)-3-cyclopentyl-N-[1-(2-hydroxy-2-methyl-propyl)-1H-pyrazol-3-yl]-propionamide] |
